Laboratory results: PubChem BioAssay (NCI)
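In this assay, cells in 96-well plates receive the compound at five concentrations for 48 hours. Endpoints are linearly interpolated between the surrounding concentrations. Definition used: TGI = concentration required for complete inhibition of growth.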

Legend:
Assay in all cases: inhibition of tumour cell growth, NCI panel, 48 h
[1] = tested on: 786-0 renal
[2] = tested on: A498 renal
[3] = tested on: A549 NSCLC
[4] = tested on: ACHN renal
[5] = tested on: CAKI-1 renal
[6] = tested on: COLO 205 colon
[7] = tested on: DLD-1 colon
[8] = tested on: DMS 114 small cell lung
[9] = tested on: DMS 273 small cell lung
[10] = tested on: EKVX NSCLC
[11] = tested on: HCC-2998 colon
[12] = tested on: HCT-116 colon
[13] = tested on: HCT-15 colon
[14] = tested on: HL-60(TB) leukemia
[15] = tested on: HOP-18 NSCLC
[16] = tested on: HOP-62 NSCLC
[17] = tested on: HOP-92 NSCLC
[18] = tested on: HT29 colon
[19] = tested on: IGROV1 ovarian
[20] = tested on: KM12 colon
[21] = tested on: KM20L2 colon
[22] = tested on: LOX IMVI melanoma
[23] = tested on: LXFL 529 NSCLC
[24] = tested on: M14 melanoma
[25] = tested on: M19-MEL melanoma
[26] = tested on: MALME-3M melanoma
[27] = tested on: MOLT-4 leukemia
[28] = tested on: NCI-H226 lung
[29] = tested on: NCI-H23 lung
[30] = tested on: NCI-H460 lung
[31] = tested on: NCI-H522 lung
[32] = tested on: OVCAR-3 ovarian
[33] = tested on: OVCAR-4 ovarian
[34] = tested on: OVCAR-5 ovarian
[35] = tested on: OVCAR-8 ovarian
[36] = tested on: RPMI-8226 leukemia
[37] = tested on: RXF 393 renal
[38] = tested on: RXF-631 renal
[39] = tested on: SF-268 CNS
[40] = tested on: SF-295 CNS
[41] = tested on: SF-539 CNS
[42] = tested on: SK-MEL-2 melanoma
[43] = tested on: SK-MEL-28 melanoma
[44] = tested on: SK-MEL-5 melanoma
[45] = tested on: SK-OV-3 ovarian
[46] = tested on: SN12C renal
[47] = tested on: SNB-75 CNS
[48] = tested on: SNB-78 CNS
[49] = tested on: SR leukemia
[50] = tested on: SW-620 colon
[51] = tested on: TK-10 renal
[52] = tested on: U251 CNS
[53] = tested on: UACC-257 melanoma
[54] = tested on: UACC-62 melanoma
[55] = tested on: UO-31 renal
[56] = tested on: BT-549 breast
[57] = tested on: CCRF-CEM leukemia
[58] = tested on: DU-145 prostate
[59] = tested on: HS 578T breast
[60] = tested on: K-562 leukemia
[61] = tested on: MCF7 breast
[62] = tested on: MDA-MB-231 breast
[63] = tested on: MDA-MB-435
[64] = tested on: MDA-N
[65] = tested on: NCI/ADR-RES ovarian
[66] = tested on: PC-3 prostate
[67] = tested on: SNB-19 CNS
[68] = tested on: T-47D breast

## O=C1C2=C(C(c3ccccc3)=C1c1ccccc1)c1ccccc1C1(c3ccccc3)C2=C(O)C(c2ccccc2)=C1c1ccccc1 (centres undefined)
[1]
  TGI: > 100 µM
[2]
  TGI: > 100 µM
[3]
  TGI: > 100 µM
[4]
  TGI: > 100 µM
[5]
  TGI: > 100 µM
[6]
  TGI: > 100 µM
[7]
  TGI: > 100 µM
[8]
  TGI: > 100 µM
[9]
  TGI: > 100 µM
[10]
  TGI: > 100 µM
[11]
  TGI: > 100 µM
[12]
  TGI: > 100 µM
[13]
  TGI: > 100 µM
[14]
  TGI: > 100 µM
[15]
  TGI: > 100 µM
[16]
  TGI: > 100 µM
[17]
  TGI: > 100 µM
[18]
  TGI: > 100 µM
[19]
  TGI: > 100 µM
[20]
  TGI: > 100 µM
[21]
  TGI: > 100 µM
[22]
  TGI: > 100 µM
[23]
  TGI: > 100 µM
[24]
  TGI: > 100 µM
[25]
  TGI: > 100 µM
[26]
  TGI: > 100 µM
[27]
  TGI: > 100 µM
[28]
  TGI: > 100 µM
[29]
  TGI: > 100 µM
[30]
  TGI: > 100 µM
[31]
  TGI: > 100 µM
[32]
  TGI: > 100 µM
[33]
  TGI: > 100 µM
[34]
  TGI: > 100 µM
[35]
  TGI: > 100 µM
[36]
  TGI: > 100 µM
[37]
  TGI: > 100 µM
[38]
  TGI: > 100 µM
[39]
  TGI: > 100 µM
[40]
  TGI: > 100 µM
[41]
  TGI: > 100 µM
[42]
  TGI: > 100 µM
[43]
  TGI: > 100 µM
[44]
  TGI: > 100 µM
[45]
  TGI: > 100 µM
[46]
  TGI: > 100 µM
[47]
  TGI: > 100 µM
[48]
  TGI: > 100 µM
[49]
  TGI: > 100 µM
[50]
  TGI: > 100 µM
[51]
  TGI: > 100 µM
[52]
  TGI: > 100 µM
[53]
  TGI: > 100 µM
[54]
  TGI: > 100 µM
[55]
  TGI: > 100 µM

## CN1CCN(Cc2nc3cccc4c3c([n+]2[O-])-c2ccccc2-4)CC1
[1]
  TGI: > 100 µM
[2]
  TGI: > 53.1 µM
[3]
  TGI: > 51.3 µM
[4]
  TGI: > 68.7 µM
[56]
  TGI: > 100 µM
[5]
  TGI: 96.9 µM
[57]
  TGI: > 82.8 µM
[6]
  TGI: > 59.7 µM
[7]
  TGI: > 100 µM
[8]
  TGI: > 100 µM
[9]
  TGI: > 100 µM
[58]
  TGI: 32.1 µM
[10]
  TGI: > 100 µM
[11]
  TGI: > 100 µM
[12]
  TGI: > 100 µM
[13]
  TGI: > 100 µM
[14]
  TGI: > 100 µM
[15]
  TGI: > 100 µM
[16]
  TGI: > 100 µM
[17]
  TGI: > 73.7 µM
[59]
  TGI: 97.1 µM
[18]
  TGI: > 61.1 µM
[19]
  TGI: > 84.2 µM
[60]
  TGI: > 100 µM
[20]
  TGI: > 66 µM
[21]
  TGI: > 100 µM
[22]
  TGI: > 51.5 µM
[23]
  TGI: > 100 µM
[24]
  TGI: > 61.1 µM
[25]
  TGI: > 100 µM
[26]
  TGI: > 50.2 µM
[61]
  TGI: 84.9 µM
[62]
  TGI: 44.3 µM
[63]
  TGI: 34 µM
[64]
  TGI: > 100 µM
[27]
  TGI: > 69.4 µM
[28]
  TGI: > 68.1 µM
[29]
  TGI: > 61.7 µM
[30]
  TGI: > 100 µM
[31]
  TGI: > 48.5 µM
[65]
  TGI: 48.3 µM
[32]
  TGI: > 100 µM
[33]
  TGI: > 84.4 µM
[34]
  TGI: > 100 µM
[35]
  TGI: 37.3 µM
[66]
  TGI: 48.6 µM
[36]
  TGI: > 74.4 µM
[37]
  TGI: 25.9 µM
[38]
  TGI: > 100 µM
[39]
  TGI: > 66.5 µM
[40]
  TGI: > 100 µM
[41]
  TGI: > 88 µM
[42]
  TGI: > 54.3 µM
[43]
  TGI: > 62.6 µM
[44]
  TGI: 49.9 µM
[45]
  TGI: > 100 µM
[46]
  TGI: > 100 µM
[67]
  TGI: > 100 µM
[47]
  TGI: 66.6 µM
[48]
  TGI: > 100 µM
[49]
  TGI: 31.8 µM
[50]
  TGI: > 100 µM
[68]
  TGI: 76.9 µM
[51]
  TGI: > 100 µM
[52]
  TGI: > 64 µM
[53]
  TGI: > 64.1 µM
[54]
  TGI: > 56.4 µM
[55]
  TGI: 66.4 µM

## Nc1nc2c3c(ncn3CC(O)CO2)n1 (centres undefined)
[1]
  TGI: > 100 µM
[2]
  TGI: > 100 µM
[3]
  TGI: > 100 µM
[4]
  TGI: > 100 µM
[5]
  TGI: > 100 µM
[57]
  TGI: > 100 µM
[6]
  TGI: > 100 µM
[7]
  TGI: > 100 µM
[8]
  TGI: > 100 µM
[9]
  TGI: > 100 µM
[11]
  TGI: > 100 µM
[12]
  TGI: > 100 µM
[13]
  TGI: > 100 µM
[14]
  TGI: > 100 µM
[15]
  TGI: > 100 µM
[16]
  TGI: > 100 µM
[17]
  TGI: > 100 µM
[18]
  TGI: 28.6 µM
[19]
  TGI: > 100 µM
[60]
  TGI: > 100 µM
[20]
  TGI: > 100 µM
[21]
  TGI: > 100 µM
[22]
  TGI: > 100 µM
[23]
  TGI: > 100 µM
[24]
  TGI: > 100 µM
[25]
  TGI: 19.4 µM
[26]
  TGI: > 100 µM
[27]
  TGI: > 100 µM
[28]
  TGI: > 100 µM
[29]
  TGI: > 100 µM
[30]
  TGI: > 100 µM
[31]
  TGI: > 100 µM
[32]
  TGI: > 100 µM
[33]
  TGI: > 100 µM
[34]
  TGI: > 100 µM
[35]
  TGI: > 100 µM
[36]
  TGI: > 100 µM
[37]
  TGI: > 100 µM
[38]
  TGI: > 100 µM
[39]
  TGI: > 100 µM
[40]
  TGI: > 100 µM
[41]
  TGI: > 100 µM
[42]
  TGI: > 100 µM
[43]
  TGI: > 100 µM
[44]
  TGI: > 100 µM
[45]
  TGI: > 100 µM
[46]
  TGI: > 100 µM
[67]
  TGI: > 100 µM
[47]
  TGI: 29 µM
[48]
  TGI: > 100 µM
[49]
  TGI: > 100 µM
[50]
  TGI: > 100 µM
[51]
  TGI: > 100 µM
[52]
  TGI: > 100 µM
[53]
  TGI: > 100 µM
[54]
  TGI: > 100 µM
[55]
  TGI: > 100 µM

## CN(C)C(=S)/N=c1\ssc(=Nc2ccccc2)n1C
[1]
  TGI: > 100 µM
[2]
  TGI: > 100 µM
[3]
  TGI: > 100 µM
[4]
  TGI: > 100 µM
[5]
  TGI: > 100 µM
[57]
  TGI: > 100 µM
[7]
  TGI: > 100 µM
[8]
  TGI: > 100 µM
[9]
  TGI: > 100 µM
[10]
  TGI: > 100 µM
[11]
  TGI: > 100 µM
[12]
  TGI: > 100 µM
[13]
  TGI: > 100 µM
[14]
  TGI: > 100 µM
[15]
  TGI: > 100 µM
[16]
  TGI: > 100 µM
[17]
  TGI: > 100 µM
[18]
  TGI: > 100 µM
[19]
  TGI: > 100 µM
[60]
  TGI: > 100 µM
[20]
  TGI: > 100 µM
[21]
  TGI: > 100 µM
[22]
  TGI: > 100 µM
[23]
  TGI: > 100 µM
[24]
  TGI: > 100 µM
[25]
  TGI: > 100 µM
[26]
  TGI: > 100 µM
[27]
  TGI: > 100 µM
[28]
  TGI: > 100 µM
[29]
  TGI: > 100 µM
[30]
  TGI: > 100 µM
[33]
  TGI: > 100 µM
[34]
  TGI: > 100 µM
[35]
  TGI: > 100 µM
[36]
  TGI: > 100 µM
[37]
  TGI: > 100 µM
[38]
  TGI: > 100 µM
[39]
  TGI: > 100 µM
[40]
  TGI: > 100 µM
[41]
  TGI: > 100 µM
[42]
  TGI: > 100 µM
[43]
  TGI: > 100 µM
[45]
  TGI: > 100 µM
[46]
  TGI: > 100 µM
[67]
  TGI: > 100 µM
[47]
  TGI: 44.7 µM
[48]
  TGI: > 100 µM
[49]
  TGI: > 100 µM
[50]
  TGI: > 100 µM
[51]
  TGI: > 100 µM
[52]
  TGI: > 100 µM
[53]
  TGI: > 100 µM
[54]
  TGI: > 100 µM
[55]
  TGI: > 100 µM
